From ChEMBL document CHEMBL6121055, “Strategic Mutations in Designer Native Peptides Combat NLRP3 Inflammasome Activation in Neurodegenerative Disorders” (J Med Chem, 2025)
The source made the active and inactive calls. The rule behind the calls is not given here. Residues, ends and D or L forms follow the SMILES beside them.

Tests used:
[1] = Cytotoxicity against mouse N9 cells assessed as reduction in cell viability at 100 uM incubated for 24 hrs by MTT assay; assay type: toxicity, cell-based; conditions: n9, 24 h
[2] = test system: N9; assay: Inhibition of NLRP3 inflammasome activation mediated in LPS/tau-stimulated mouse N9 cells assessed as increase in mitochondrial membrane potential by flow cytometric analysis; assay type: cell-based; conditions: dose 5-30 µM
[3] = test system: N9; assay: Inhibition of NLRP3 inflammasome activation mediated mitochondrial damage in LPS/ATP-stimulated mouse N9 cells assessed as reduction in mitochondrial ROS level by MitoSOX red staining based confocal microscopic analysis; assay type: cell-based; conditions: dose 10-20 µM
[4] = test system: N9; assay: Inhibition of NLRP3 inflammasome activation mediated in LPS/alpha-synuclein-stimulated mouse N9 cells assessed as decrease in mitochondrial ROS generation by flow cytometric analysis; assay type: cell-based; conditions: dose 5-30 µM
[5] = test system: N9; assay: Inhibition of NLRP3 inflammasome activation mediated pyroptosis in LPS/amyloid-beta-stimulated mouse N9 cells assessed as reduction in cell death at 5 to 30 uM by MTT assay; assay type: cell-based; conditions: dose 5-30 µM
[6] = test system: N9; assay: Inhibition of AIM2 inflammasome activation mediated pyroptosis in LPS/poly(dA:dT)-stimulated mouse N9 cells assessed as reduction in cell death at 50 uM by MTT assay; assay type: cell-based
[7] = test system: N9; assay: Inhibition of NLRP3 inflammasome activation mediated pyroptosis in LPS/alpha-synuclein-stimulated mouse N9 cells assessed as reduction in cell death at 5 to 30 uM by MTT assay; assay type: cell-based; conditions: dose 5-30 µM
[8] = test system: N9; assay: Inhibition of NLRP3 inflammasome activation mediated in LPS/tau-stimulated mouse N9 cells assessed as decrease in mitochondrial ROS generation by flow cytometric analysis; assay type: cell-based; conditions: dose 5-30 µM
[9] = Stability of compound in fetal bovine serum at 100 uM measured after 48 hrs by RP-HPLC analysis; assay type: ADME, cell-free, Bos taurus; conditions: cattle
[10] = test system: N9; assay: Inhibition of NLRP3 inflammasome activation in LPS/tau-stimulated mouse N9 cells assessed as reduction in IL-1beta secretion at 10 to 20 uM preincubated with LPS for 4 hrs followed by compound addition for 30 mins and measured after tau stimulation for 24 hrs by ELISA; assay type: cell-based; conditions: dose 10-20 µM, time 24.5 hrs
[11] = test system: N9; assay: Inhibition of NLRP3 inflammasome activation mediated pyroptosis in LPS/ATP-stimulated mouse N9 cells assessed as reduction in cell death measured after 24 hrs by MTT assay; assay type: cell-based; conditions: dose 5-30 µM
[12] = Stability of compound in human serum at 100 uM measured over 24 hrs by RP-HPLC analysis; assay type: ADME, cell-free
[13] = test system: N9; assay: Inhibition of NLRP3 inflammasome activation in LPS/ATP-stimulated mouse N9 cells assessed as increase in intracellular chloride level at 5 to 30 uM preincubated with LPS for 4 hrs followed by compound addition for 30 mins and measured after ATP stimulation for 45 mins by MQAE dye based analysis; assay type: cell-based; conditions: dose 5-30 µM, time 75.0 min
[14] = test system: N9; assay: Inhibition of NLRP3 inflammasome activation mediated ROS production in LPS/ATP-stimulated mouse N9 cells preincubated with LPS for 4 hrs followed by compound addition for 30 mins and measured after ATP stimulation for 1 hrs by DCFDA staining based flow cytometric analysis; assay type: cell-based; conditions: dose 10-30 µM, time 1.5 hrs
[15] = test system: N9; assay: Inhibition of NLRP3 inflammasome activation mediated pyroptosis in LPS/ATP-stimulated mouse N9 cells assessed as reduction in cell death at 100 uM measured after 24 hrs by MTT assay; assay type: cell-based
[16] = test system: N9; assay: Inhibition of NLRP3 inflammasome activation in LPS/alpha-synuclein-stimulated mouse N9 cells assessed as inhibition of ASC speck formation preincubated with LPS for 4 hrs followed by compound addition by 30 mins and measured after 24 hrs of alpha-synuclein stimulation by DAPI staining based immunofluorescence analysis; assay type: cell-based; conditions: dose 10-20 µM, time 24.5 hrs
[17] = test system: N9; assay: Inhibition of NLRP3 inflammasome activation in LPS/ATP-stimulated mouse N9 cells assessed as increase in intracellular potassium level at 10 to 25 uM preincubated with LPS for 4 hrs followed by compound addition for 30 mins and measured after ATP stimulation for 1 hrs by ICP-OES analysis; assay type: cell-based; conditions: dose 10-25 µM, time 1.5 hrs
[18] = test system: N9; assay: Inhibition of NLRP3 inflammasome activation in LPS/ATP-stimulated mouse N9 cells assessed as reduction in IL-1beta mRNA expression by measuring remaining activity at 20 uM by qRT-PCR analysis relative to control; assay type: cell-based
[19] = test system: N9; assay: Inhibition of NLRP3 inflammasome activation in LPS/ATP-stimulated mouse N9 cells assessed as increase in intracellular chloride level preincubated with LPS for 4 hrs followed by compound addition for 30 mins and measured after ATP stimulation for 50 mins by MQAE dye based analysis; assay type: cell-based; conditions: time 80.0 min
[20] = test system: N9; assay: Inhibition of NLRP3 inflammasome activation in LPS/ATP-stimulated mouse N9 cells assessed as inhibition of ASC speck formation at 20 to 30 uM preincubated with LPS for 4 hrs followed by compound addition by 30 mins and measured after 45 mins of ATP stimulation by DAPI staining based immunofluorescence analysis; assay type: cell-based; conditions: dose 20-30 µM, time 75.0 min
[21] = test system: N9; assay: Inhibition of NLRP3 inflammasome activation in LPS/ATP-stimulated mouse N9 cells assessed as increase in mitochondrial membrane potential preincubated with LPS for 4 hrs followed by compound addition for 30 mins and measured after ATP stimulation for 1 hrs by Rhodamine 123 staining based flow cytometric analysis; assay type: cell-based; conditions: dose 10-30 µM, time 1.5 hrs
[22] = Inhibition of NLRP3 inflammasome activation in LPS/ATP-stimulated mouse N9 cells assessed as inhibition of IL-1beta mRNA expression by qRT-PCR analysis; assay type: cell-based
[23] = test system: N9; assay: Inhibition of NLRP3 inflammasome activation mediated mitochondrial damage in LPS/ATP-stimulated mouse N9 cells assessed as normal tubular structure of mitochondria at 10 to 20 uM by […] staining based confocal microscopic analysis; conditions: dose 10-20 µM
[24] = test system: N9; assay: Inhibition of NLRP3 inflammasome activation in LPS/amyloid-beta-stimulated mouse N9 cells assessed as inhibition of ASC speck formation preincubated with LPS for 4 hrs followed by compound addition by 30 mins and measured after 16 hrs of amyloid-beta stimulation by DAPI staining based immunofluorescence analysis; assay type: cell-based; conditions: dose 10-20 µM, time 16.5 hrs
[25] = test system: N9; assay: Inhibition of NLRP3 inflammasome activation mediated in LPS/amyloid-beta-stimulated mouse N9 cells assessed as increase in mitochondrial membrane potential by flow cytometric analysis; assay type: cell-based; conditions: dose 5-30 µM
[26] = test system: N9; assay: Inhibition of NLRP3 inflammasome activation in LPS/tau-stimulated mouse N9 cells assessed as inhibition of ASC speck formation preincubated with LPS for 4 hrs followed by compound addition by 30 mins and measured after 24 hrs of tau stimulation by DAPI staining based immunofluorescence analysis; assay type: cell-based; conditions: dose 10-20 µM, time 24.5 hrs
[27] = test system: N9; assay: Inhibition of NLRP3 inflammasome activation in LPS/ATP-stimulated mouse N9 cells assessed as reduction in caspase-1 mRNA expression by measuring remaining activity at 20 uM by qRT-PCR analysis relative to control; assay type: cell-based
[28] = test system: N9; assay: Inhibition of NLRP3 inflammasome activation in LPS/ATP-stimulated mouse N9 cells assessed as inhibition of GSDMD cleavage by DAPI staining based immunofluorescence analysis; assay type: cell-based; conditions: dose 10-20 µM
[29] = test system: HEK-293T; assay: Cytotoxicity against HEK293T cells assessed as reduction in cell viability upto 100 uM measured after 24 hrs by MTT assay; assay type: toxicity, cell-based; conditions: human
[30] = test system: N9; assay: Inhibition of NLRP3 inflammasome activation in LPS/amyloid-beta-stimulated mouse N9 cells assessed as reduction in IL-1beta secretion at 10 to 20 uM preincubated with LPS for 4 hrs followed by compound addition for 30 mins and measured after amyloid-beta stimulation for 24 hrs by ELISA; assay type: cell-based; conditions: dose 10-20 µM, time 24.5 hrs

Structure (SMILES): CC[C@H](C)[C@H](NC(=O)[C@H](C)NC(=O)[C@H](C)NC(=O)[C@H](CC(C)C)NC(=O)[C@@H](NC(=O)[C@H](Cc1c[nH]c2ccccc12)NC(=O)[C@@H](N)C(C)C)[C@@H](C)CC)C(=O)N[C@@H](CC(N)=O)C(=O)N[C@@H](CCCNC(=N)N)C(=O)N[C@@H](CCCNC(=N)N)C(=O)O (H-VWILAAINRR-OH)
- Activity [1]: Non-toxic
- inhibition [2]: Dose-dependent-effect
- inhibition [3]: Dose-dependent-effect
- inhibition [4]: Dose-dependent-effect
- inhibition [5]: Active
- inhibition [6]: Active
- inhibition [7]: Active
- inhibition [8]: Dose-dependent-effect
- Stability [9]: Stable
- inhibition [10]: Dose-dependent-effect
- inhibition [11]: Dose-dependent-effect
- Stability [12]: Stable
- inhibition [13]: Active
- inhibition [14]: Dose-dependent-effect
- inhibition [15]: Active
- inhibition [16]: Dose-dependent-effect
- inhibition [17]: Active
- Activity [18]: 50%
- inhibition [19]: Active
- inhibition [20]: Active
- inhibition [21]: Dose-dependent-effect
- IC50 [22]: 2570 nM
- inhibition [23]: Active
- inhibition [24]: Dose-dependent-effect
- inhibition [25]: Dose-dependent-effect
- inhibition [26]: Dose-dependent-effect
- Activity [27]: 15%
- inhibition [28]: Dose-dependent-effect
- Activity [29]: Non-toxic
- inhibition [30]: Dose-dependent-effect
